Key:
[1] = target: Melatonin receptor (Gallus gallus, UniProt P49288+P51050+P49285); test: Binding affinity to compete for 2-[125I]iodomelatonin binding to chicken retinal membranes; set-up: species or system Retina, Membrane
[2] = target: Melatonin receptor (Gallus gallus) (UniProt P49288+P51050+P49285); test: Relative binding affinity to chicken retinal membranes compared to 2-[125I]iodomelatonin.; settings: Retina; Membrane
[3] = target: Melatonin receptor (Oryctolagus cuniculus); test: Inhibition of […] calcium dependent dopamine release from the rabbit retina.
[4] = species: Oryctolagus cuniculus; test: Tested for in vitro inhibition of calcium-dependent release of [3H]dopamine from rabbit retina; NE- No effect; type: functional

`CCC(=O)NCCc1ccccc1OC` gave a Ki [1] of 789 nM and a Relative affinity [2] of 1380.
`CCC(=O)NC1CCc2ccccc2C1` (stereo unspecified) gave a Ki [1] of 145 nM, a Relative affinity [2] of 254 and an IC50 [3] of 8.1 nM.
With `COc1cc2c(CCNC(C)=O)c(C)[nH]c2c(Cl)c1Cl` the Ki [1] was 0.23 nM, the Relative affinity [2] was 0.4 and the IC50 [3] was 0.01 nM.
Work on `CCC(=O)NCCc1c[nH]c2ccc(OC)cc12` yielded a Ki [1] of 0.27 nM and a Relative affinity [2] of 0.47.
In the case of `COc1cccc2c1CC(NC(=O)C(C)C)CC2` (stereo unspecified), the Ki [1] is reported as 312 nM, the Relative affinity [2] is reported as 547 and the IC50 [3] is reported as 7.9 nM.
Compound `COc1cccc2c1CC(NC(=O)C1CC1)CC2` (stereo unspecified) has a Ki [1] of 141 nM, a Relative affinity [2] of 247 and an IC50 [3] of 2.5 nM.
In the case of `COc1ccc2c(c1)CCC(N)C2.Cl` (stereo unspecified), the Ki [1] is reported as over 100000 nM.
`COc1ccccc1CCNC(C)=O` gave a Ki [1] of 420 nM, a Relative affinity [2] of 737 and an IC50 [3] of 3 nM.
Compound `COc1cccc2c1CCC(NC(C)=O)C2` (stereo unspecified) has a Ki [1] of 1950 nM, a Relative affinity [2] of 3420 and an IC50 [3] of 6.5 nM.
With `COc1cccc2c1CC(NC(=O)CCl)CC2` (stereo unspecified) the Ki [1] was 3.75 nM, the Relative affinity [2] was 6.6 and the IC50 [3] was 0.063 nM.
`COc1cccc2c1CC(NC(=O)Cc1ccccc1)CC2` (stereo unspecified) was tested, and the IC50 [4] was “Not Active”.
Compound `COc1cccc(CCNC(C)=O)c1` has a Ki [1] of 581 nM and a Relative affinity [2] of 1020.
`COc1cccc2c1CC(NC(=O)c1ccccc1)CC2` (stereo unspecified) showed a Ki [1] of 23100 nM, a Relative affinity [2] of 40500 and an IC50 [3] of 22 nM.
`CCCC(=O)NC1CCc2cccc(OC)c2C1` (stereo unspecified) showed a Ki [1] of 3.6 nM, a Relative affinity [2] of 6.3 and an IC50 [3] of 1.2 nM.
Compound `CCCC(=O)NCCc1ccccc1OC` has a Ki [1] of 748 nM and a Relative affinity [2] of 1310.
Work on `CCCC(=O)NCCc1c[nH]c2ccc(OC)cc12` yielded a Ki [1] of 0.73 nM and a Relative affinity [2] of 1.28.
For `CCCC(=O)NC1CCc2ccccc2C1` (stereo unspecified), the Ki [1] was 44.4 nM, the Relative affinity [2] was 78 and the IC50 [3] was 1 nM.
With `COc1ccc2c(c1)CC(NC(C)=O)CC2` (stereo unspecified) the Ki [1] was 121 nM, the Relative affinity [2] was 212 and the IC50 [3] was 1.6 nM.
For `CC(=O)NC1CCc2ccccc2C1` (stereo unspecified), the Ki [1] was 665 nM, the Relative affinity [2] was 1170 and the IC50 [3] was 52 nM.
With `O=C(CCl)NC1CCc2ccccc2C1` (stereo unspecified) the Ki [1] was 95.1 nM, the Relative affinity [2] was 167 and the IC50 [3] was 1.3 nM.
